From PMC11401813, “Grewiifopenes A–K, bioactive clerodane diterpenoids from Casearia grewiifolia Vent” (Natural Products and Bioprospecting, 2024)
In brackets after ≈: the same amount, converted by molar mass.

Tests used:
[1] = test system: HuCCA-1 (cholangiocarcinoma); assay: Cytotoxicity, MTT assay, HuCCA-1; assay type: cell-based, human; conditions: Homo sapiens, HuCC-A1, HuCCA-1 cell line; MTT; mean ± s.d. (n = 3); read-out: IC50, HuCCA-1
Protocol: (§1) The in vitro cytotoxicity assay toward a panel of human cancer cell lines of several clerodane diterpenoids has been well investigated. Thus, the isolates in adequate amounts were tested against MOLT-3 (acute lymphoblastic leukemia), HuCCA-1 (cholangiocarcinoma), HepG2 (hepatocellular carcinoma), A549 (lung adenocarcinoma), HeLa (cervical carcinoma), and MDA-MB-231 (triple negative breast cancer) cancer cell lines using the MTT and XTT methods. Doxorubicin and etoposide were used as positive controls.
(§2) The MTT (3-(4,5-dimethylthiazol-2-yl)-2,5-diphenyltetrazolium bromide) assay was employed for the cytotoxic evaluation against five human cancer cell lines, including HepG2, A549, MDA-MB-231, HeLa, and HuCCA-1, while the XTT (2,3-bis-(2-methoxy-4-nitro-5-sulphenyl)-(2H)-tetrazolium-5-carboxanilide) method was used for MOLT-3 cancer cell.

[2] = test system: A549 (lung adenocarcinoma); assay: Cytotoxicity, MTT assay, A549; assay type: cell-based, human; conditions: Homo sapiens, A549, A549 cell line, mean ± s.d. (n = 3)
Protocol: as §1, §2

[3] = test system: MOLT-3 (acute lymphoblastic leukemia); assay: Cytotoxicity, XTT method, MOLT-3; assay type: cell-based; conditions: Homo sapiens; MOLT-3 cell line; XTT; mean ± s.d. (n = 3); read-out: IC50, MOLT-3
Protocol: as §1, §2

[4] = test system: HeLa (cervical carcinoma); assay: Cytotoxicity, MTT assay, HeLa; assay type: cell-based, human; conditions: HeLa cell line, MTT, mean ± s.d. (n = 3); for IC50: Homo sapiens, HeLa, read-out: IC50, HeLa
Protocol: as §1, §2

[5] = test system: Staphylococcus epidermidis (ATCC 12228); assay: Antibacterial broth microdilution (MIC/MBC), S. epidermidis; assay type: cell-based; conditions: ATCC12228
Protocol: (§3) In addition, the isolates were also evaluated for their antibacterial activity towards three strains including Bacillus cereus (ATCC 11778), Staphylococcus aureus (ATCC 6538) and Staphylococcus epidermidis (ATCC 12228) using penicillin G and gentamicin as the antibiotic controls (Table 5). […] Finally, the inhibitory activity of aromatase by using a CYP19 screening kit was investigated. The aromatase (also called estrogen synthase) is responsible for converting the non-aromatic ring A of androgens to estrogens, which are related to the proliferation of breast cancer cells.
(§4) The tested strains, Staphylococcus aureus (S. aureus) ATCC6538, Staphylococcus epidermidis (S. epidermidis) ATCC12228, and Bacillus cereus (B. cereus) ATCC11778 were obtained from the American Type Culture Collection (ATCC).
(§5) All tested species were grown on Mueller Hinton Agar (MHA) and incubated at 37 °C for 18–24 h. The bacterial colonies suspension in sterile normal saline was diluted until they reached a 1 × 10^6 CFC/mL concentration, which was then compared to the McFarland scale. This step provided a standard bacterial suspension (1 × 10^6 CFU/mL), which was used for the following assays.
(§6) The broth microdilution technique was used for the MIC and MBC determination, which was expressed according to Clinical and Laboratory Standards Institute (CLSI) standard M07 guideline. The compounds were prepared as a stock solution by dissolving in dimethyl sulfoxide (DMSO) with the concentration ranging from 0.195 to 200 µg/mL. DMSO and penicillin G or gentamicin were used as normal and standard drug control. […] Three replicates were performed for each experiment.

[6] = test system: HepG2 (hepatocellular carcinoma); assay: Cytotoxicity, MTT assay, HepG2; assay type: cell-based, human; conditions: Homo sapiens, HepG2, HepG2 cell line; MTT; mean ± s.d. (n = 3); read-out: IC50, HepG2
Protocol: as §1, §2

[7] = test system: Bacillus cereus (ATCC 11778); assay: Antibacterial broth microdilution (MIC/MBC), B. cereus; assay type: cell-based; conditions: Bacillus cereus, ATCC11778
Protocol: as §3, §4, §5, §6

[8] = test system: Staphylococcus aureus (ATCC 6538); assay: Antibacterial broth microdilution (MIC/MBC), S. aureus; assay type: cell-based; conditions: ATCC6538
Protocol: as §3, §4, §5, §6

[9] = test system: MDA-MB-231 (triple negative breast cancer); assay: Cytotoxicity, MTT assay, MDA-MB-231; assay type: cell-based, human; conditions: Homo sapiens, MDA-MB-231, MDA-MB-231 cell line; MTT; mean ± s.d. (n = 3); read-out: IC50, MDA-MB-231
Protocol: as §1, §2

aromatase (CYP19) = target: T1, aromatase (CYP19) (Homo sapiens, UniProt P11511); assay: Aromatase (CYP19) inhibition assay; assay type: biochemical; conditions: for inhibition at 12.5 µM: at a concentration of 12.5 µM; for Aromatase inhibitory activity (in words): at the concentration up to 12.15 µM
T1 construct: purchased
T1 sequence (P11511 1-503): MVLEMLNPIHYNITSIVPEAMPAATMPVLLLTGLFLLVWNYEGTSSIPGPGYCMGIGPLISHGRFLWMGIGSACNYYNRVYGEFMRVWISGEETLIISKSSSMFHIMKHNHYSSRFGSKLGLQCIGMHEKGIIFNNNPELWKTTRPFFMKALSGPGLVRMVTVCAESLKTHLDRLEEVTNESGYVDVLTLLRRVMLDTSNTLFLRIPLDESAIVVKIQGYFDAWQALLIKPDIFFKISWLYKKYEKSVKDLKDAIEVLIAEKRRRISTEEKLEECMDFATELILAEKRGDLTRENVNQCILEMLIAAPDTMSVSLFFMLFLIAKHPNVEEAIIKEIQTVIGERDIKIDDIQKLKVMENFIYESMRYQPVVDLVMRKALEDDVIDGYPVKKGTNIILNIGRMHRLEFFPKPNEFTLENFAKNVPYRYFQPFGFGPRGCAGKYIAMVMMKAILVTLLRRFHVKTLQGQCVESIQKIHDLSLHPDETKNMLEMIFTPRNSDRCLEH
Protocol: as §3
The aromatase assay used a method previously designed by Stresser and co-workers.

## C=CC(=C)CC[C@]1(C)[C@H](C)[C@@H](OC(C)=O)[C@H](OC)[C@@]23C(=C[C@H](OC(=O)CC(C)C)C[C@@H]12)[C@@H](OC(C)=O)O[C@H]3OC(C)=O [Compound 2, Grewiifopene B]
[1]
  IC50: 8.7 ± 1.1 µM
[2]
  IC50: 7.8 ± 0.5 µM
[3]
  IC50: 2.7 ± 0.4 µM
[4]
  IC50: 8.8 ± 0.9 µM
[5]
  MBC: > 200 µg/mL
  MIC: > 200 µg/mL
[6]
  IC50: 37.1 ± 4.1 µM
[7]
  MBC: > 200 µg/mL
  MIC: 100 µg/mL (≈ 169 µM)
[8]
  MBC: > 200 µg/mL
  MIC: > 200 µg/mL
[9]
  IC50: 9.3 ± 0.4 µM

## C=CC(=C)CC[C@]1(C)[C@H](C)[C@@H](OC(C)=O)[C@H](OC(C)=O)[C@@]23C(=C[C@H](OC(=O)CC(C)C)C[C@@H]12)[C@@H](OC(C)=O)O[C@H]3OC(C)=O [Compound 3, Grewiifopene C]
[1]
  IC50: 3.9 ± 0.2 µM
[2]
  IC50: 5.1 ± 1.1 µM
[3]
  IC50: 2.7 ± 0.3 µM
[4]
  IC50: 5.3 ± 0.1 µM
[5]
  MBC: > 200 µg/mL
  MIC: > 200 µg/mL
[6]
  IC50: 13.2 ± 0.5 µM
[7]
  MBC: > 200 µg/mL
  MIC: > 200 µg/mL
[8]
  MBC: > 200 µg/mL
  MIC: > 200 µg/mL
[9]
  IC50: 8.4 ± 0.1 µM
Aromatase (CYP19)
  inhibition at 12.5 µM: 15%
  Aromatase inhibitory activity (in words): did not show activity

## C=CC(=C)CC[C@]1(C)[C@H](C)C[C@H](OC)[C@@]23C(=C[C@H](OC(=O)[C@@H](C)CC)C[C@@H]12)[C@@H](OC(C)=O)O[C@H]3OC(C)=O [Compound 5, corymbulosin N]
[1]
  IC50: 5.3 ± 0.1 µM
[2]
  IC50: 5 ± 0.9 µM
[3]
  IC50: 3.4 ± 0.4 µM
[4]
  IC50: 5.6 ± 0.3 µM
[6]
  IC50: 10 ± 0.5 µM
[9]
  IC50: 8.7 ± 0.2 µM
Aromatase (CYP19)
  inhibition at 12.5 µM: 18%
  Aromatase inhibitory activity (in words): did not show activity

## C=CC(=C)CC[C@]1(C)[C@H](C)C[C@H](OC)[C@@]23C(=C[C@H](OC(=O)C(C)C)C[C@@H]12)[C@@H](OC(C)=O)O[C@H]3OC(C)=O [Compound 6, corymbulosin K]
[1]
  IC50: 5.6 ± 1.2 µM
[2]
  IC50: 5.8 ± 0.8 µM
[3]
  IC50: 3.2 ± 0.2 µM
[4]
  IC50: 7.3 ± 0.3 µM
[6]
  IC50: 11.8 ± 1.1 µM
[9]
  IC50: 10.2 ± 0.6 µM

## C=CC(=C)CC[C@]1(C)[C@H](C)C[C@H](OC)[C@@]23C(=C[C@H](OC(=O)CC(C)C)C[C@@H]12)[C@@H](OC)O[C@H]3OC(C)=O [Compound 10, kurzipene A]
[1]
  IC50: 7.5 ± 0.2 µM
[2]
  IC50: 8.2 ± 0.8 µM
[3]
  IC50: 5 ± 1.4 µM
[4]
  IC50: 10.7 ± 0.6 µM
[5]
  MBC: > 200 µg/mL
  MIC: > 200 µg/mL
[6]
  IC50: 13 ± 1 µM
[7]
  MBC: 12.5 µg/mL (≈ 24.8 µM)
  MIC: 12.5 µg/mL (≈ 24.8 µM)
[8]
  MBC: > 200 µg/mL
  MIC: > 200 µg/mL
[9]
  IC50: 10.4 ± 0.2 µM

## C=CC(=C)CC[C@]1(C)[C@H](C)[C@@H](OC(=O)CC(C)C)[C@H](O)[C@@]23C(=C[C@H](OC(=O)CC(C)C)C[C@@H]12)[C@@H](OC(C)=O)O[C@H]3OC(C)=O [Compound 12, Grewiifopene E]
[1]
  IC50: 4.4 ± 0.4 µM
[2]
  IC50: 3.6 ± 0.04 µM
[3]
  IC50: 1.7 ± 0.4 µM
[4]
  IC50: 3.8 ± 0.6 µM
[6]
  IC50: 8.9 ± 0.3 µM
[9]
  IC50: 7.6 ± 0.9 µM
Aromatase (CYP19)
  inhibition at 12.5 µM: 0%
  Aromatase inhibitory activity (in words): did not show activity

## C=CC(=C)CCC1(C)C(C)C(OC(=O)C=Cc2ccc(O)cc2)C(O)C23C(=CC(OC(=O)CC(C)C)CC12)C(OC)OC3OC(C)=O (stereo not drawn) [Compound 13, Grewiifopene F]
[1]
  IC50: 41.4 ± 6.1 µM
[2]
  IC50: 30.6 ± 3.9 µM
[3]
  IC50: 3.7 ± 1 µM
[4]
  IC50, HeLa: I^a (Inactive for cytotoxicity with < 50% inhibition at a concentration of 50 µg/mL)
[6]
  IC50: 44.2 ± 4.4 µM
[9]
  IC50: 37 ± 5.1 µM
